Laboratory results as given in patent US6693072B2, “Elastase inhibitors” (Aventis Pharmaceuticals Inc., priority 1994, dated 2004).

Tests used:
[1] = molecular target: T1, human neutrophil elastase (Homo sapiens, UniProt P08246); assay: Human neutrophil elastase in vitro inhibition assay, N-MeOSuc-Ala-Ala-Pro-Val-p-nitroanilide substrate; type: biochemical; conditions: for human neutrophil elastase, using N-MeOSucAlaAlaProVal-pNA as substrate; enzyme purified from human sputum
T1 construct: Enzyme is purified from human sputum, although recently it has become commercially available; from tissue; host or cells: human sputum
T1 sequence (P08246 30-247 limits assumed): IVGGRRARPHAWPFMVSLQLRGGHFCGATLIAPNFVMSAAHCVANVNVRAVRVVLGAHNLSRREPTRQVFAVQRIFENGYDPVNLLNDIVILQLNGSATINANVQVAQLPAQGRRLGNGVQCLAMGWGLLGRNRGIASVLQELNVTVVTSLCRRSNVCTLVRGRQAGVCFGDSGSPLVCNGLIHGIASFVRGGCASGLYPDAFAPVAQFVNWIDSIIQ
Description: Human neutrophil elastase is assayed in vitro using N-MeOSuc-[…]-nitroanilide, available commercially, as substrate. The assay buffer, pH and assay techniques are similar to those described by Mehdi, et al., Biochemical and Biophysical Research Communications, 166, 595 (1990). Enzyme is purified from human sputum, although recently it has become commercially available. Kinetic characterization of immediate inhibitors is by means of the Dixon plot, whereas the characterization of slow- and/or tight-binding inhibitors used data analysis techniques reviewed by Williams and Morrison. The synthesis and analytical use of a highly sensitive and convenient substrate of elastase is described in J. Bieth, B. Spiess and C. G. Wermuth, Biochemical Medicine, 11 (1974)350-375.

[2] = molecular target: human neutrophil elastase (human) (UniProt P08246); assay: in vitro enzyme inhibition kinetics of human neutrophil elastase, substrate N-MeOSuc-Ala-Ala-Pro-Val-p-nitroanilide

Ki [1] | Molecule | Ki [2]
150 nM | CC(C)C(NC(=O)C1CCCCN1C(=O)[C@@H](NC(=O)c1ccc(C(=O)N2CCOCC2)cc1)C(C)C)C(=O)C(F)(F)C(F)(F)F (mixture of isomers) [MDL 105,759, N-[4-(4-morpholinylcarbonyl)benzoyl]-L-valyl-N′-[3,3,4,4,4-pentafluoro-1-(1-methylethyl)-2-oxobutyl]-D,L-2-pipecolinamide] | 
34 nM | CC(C)C(NC(=O)[C@H]1CCN1C(=O)[C@@H](NC(=O)c1ccc(C(=O)N2CCOCC2)cc1)C(C)C)C(=O)C(F)(F)C(F)(F)F (stereo partly drawn) [MDL 104,238, N-[4-(4-morpholinylcarbonyl)benzoyl]-L-valyl-N′-[3,3,4,4,4-pentafluoro-1-(1-methylethyl)-2-oxobutyl]-L-2-azetamide] | 
20 nM | CC(C)C(NC(=O)[C@H]1C[C@@H](OCc2ccccc2)CN1C(=O)[C@@H](NC(=O)c1ccc(C(=O)N2CCOCC2)cc1)C(C)C)C(=O)C(F)(F)C(F)(F)F (stereo partly drawn) [MDL 104,865, N-[4-(4-morpholinylcarbonyl)benzoyl]-L-valyl-N′-[3,3,4,4,4-pentafluoro-1-(1-methylethyl)-2-oxobutyl]-trans-4-benzyloxyprolinamide] | 
 | N-[4-(4-morpholinylcarbonyl)benzoyl]-L-valyl-N'-[3,3,4,4,4-pentafluoro-1-(1-methylethyl)-2-oxobutyl]-trans-4-acetoxyprolinamide (peptide) | 40 nM
